In patent publication US12653807B2, “Modified release formulation for (-)-(3AR,4S,7AR)-4-hydroxy-4-m-tolylethynyl-octahydro-indole-1-carboxylic acid methyl ester” (NOVARTIS AG, priority 2013, dated 2026):
In brackets after ≈: the same amount, converted by molar mass. Like-named read-outs stand apart in the source and are kept apart here.

What was measured:
[1] = Roberts et al., cited from earlier work
[2] = distribution coefficient Log P of drug substance; format: physicochemical
Procedure: AFQ056 is a chiral molecule with 3 asymmetric carbon atoms and has a melting point of about 115° C. One single polymorph has been identified.

[3] = solubility of AFQ056 at 37° C. in different aqueous media (FIG. 2); format: physicochemical; details: pure aqueous solution with raising ethanol levels
Procedure: FIG. 2 graphically depicts the solubility of AFQ056 at 37° C. in different aqueous media. […] Up to the amount of about 20% of ethanol in the solutions, the LDAO (Lauryldimethylamine N-oxide) in water solution and the water-ethanol solution show a different solubility pattern of AFQ056. In the presence of about 40% ethanol in the solutions, both the LDAO in water solution and the water-ethanol solution show a similar solubility for AFQ056.
The solubility pattern of AFQ056 was examined ([…]). […] In pure aqueous solutions the solubility of AFQ056 steadily increases with raising ethanol concentrations. The solubility pattern of AFQ056 in a LDAO water-ethanol solution is distinct from the solubility pattern of AFQ056 in a pure aqueous solution only up to an amount of 20% ethanol present in the solution. […] Immediate release forms of AFQ056 have therefore the inherent risk of dose dumping and can create severe consequences for the patient if ethanol-containing beverages are consumed in parallel. Particle size distribution is also an important factor influencing the dissolution of a drug substance and is known to influence the drug release from matrix tablets.

[4] = test system: L-dopa induced dyskinesias; assay: earlier studies of IR AFQ056 in Parkinson's disease patients; format: in vivo, human; details: IR formulation
Source text: AFQ056 has previously been formulated as a hard gelatin capsule and as a powder for oral suspension, both with immediate release (IR) properties. […] The IR formulation used in these studies required twice-daily dosing.

[5] = half life of AFQ056 used to set the wash out period; details: human, in vivo, oral; 50 mg and 100 mg doses
Source text: The study has a 3-Latin, 5-sequences×5-period open-label design that is suitable for comparing the pharmacokinetics including relative bioavailability of three modified release formulations of AFQ056. The immediate release capsule formulation (size O, IR) is used as a reference to enable comparisons with data obtained in previously completed trials. This study design allows the comparison of pharmacokinetic profile of AFQ056 from three modified release (MR) formulations relative to the IR formulation under fasted conditions, and to assess the food effect on the pharmacokinetics of the three MR forms. Latin-square design is selected as it offers maximum precision of comparison across different treatments with minimum number of study subjects. The cross-over design permits investigation of all five treatment conditions within each subject and is used to account for interindividual variability. […] Sampling for 72 hours post dose is considered sufficient for characterizing the PK profiles of all formulations, including the MR forms.

[6] = solubility in water and in ethanol at room temperature; format: physicochemical; details: for solubility: room temperature
Source text: Particle size distribution is also an important factor influencing the dissolution of a drug substance and is known to influence the drug release from matrix tablets.

CC(=O)Oc1ccccc1C(=O)O [Aspirin]
Solubility in ethanol ([1]; ethanol): about 237 mg/ml
Solubility in water ([1]; water): 8400 µg/mL (≈ 46.6 mM)

COC(=O)N1CC[C@@H]2[C@H]1CCC[C@@]2(O)C#Cc1cccc(C)c1 [AFQ056, (−)-(3aR,4S,7aR)-Octahydro-4-hydroxy-4-[(3-methylphenyl)ethynyl]-1H-indole-1-carboxylic acid methyl ester]
logP [2]: 4.7
solubility with raising ethanol levels [3]: steadily increasing solubility
effect on L-dopa induced dyskinesias ([4]; Parkinson's disease patients): reduction in L-dopa induced dyskinesias
effect on underlying Parkinsonian motor symptoms ([4]; Parkinson's disease patients): without inducing any clinically or statistically significant worsening
most frequent adverse events ([4]; patients): dizziness, dyskinesia, nausea, fatigue, and hallucinations
half-life [5]: 7 to 17 h
solubility ([6]; organic solvent or mixture, ethanol, read-out: Solubility in ethanol): ~53000 µg/mL (≈ 169 mM)
solubility in organic solvents (in words) ([6]; organic solvents such as ethanol): soluble
solubility in water (in words) ([6]; water): hardly soluble
solubility ([6]; water, read-out: Solubility in water): ~20 µg/mL (≈ 0.0638 mM)
